Results: patent publication US7691382B2, “Antiviral polypeptides comprising tandem repeats of APOE 141-149 and variants thereof” (priority 2003, dated 2010)
Where “and” joins values, the source holds several entries; their conditions need not be identical. Equal values may be shown once. Read-outs that look alike come from different tables or passages of the source. Peptide text beside a SMILES is read from it.

How the values were obtained:
[1] = tested on: HSV2 clinical isolates; assay type: cell-based, Human herpes simplex virus type 2
Protocol: Plaque assays were performed. The methodology was as described in previous Examples for HSV1 plaque assays (including usage of Vero cells) except HSV2 clinical isolates (provided by Prof. Anthony Hart of Liverpool University) were employed instead.

[2] = tested on: HSV1; assay type: cell-based, Human herpes simplex virus type 1
Method in brief: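 Plaque reduction in Vero monolayers: ~100 pfu HSV1 pre-mixed 10 min at 37 °C with acetylated/amidated peptides in 0.5% FCS medium, inoculated 60–80 min, then carboxymethylcellulose overlay for 22 or 40 h. Plaques counted after fixing and carbol fuchsin staining; IC50 from % of control versus peptide concentration.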

[3] = tested on: HIV-1; conditions: for activity against HIV, significance by ANOVA (in words): FIG. 3, acutely infected U937 cells; for reduction in infectivity (HIV): at 20 μM; for reduction in infectivity (HIV) / % Decrease in HIV p24 Production, Mean ± sd / % Decrease in HIV p24 Production, Exp. 1-3: U937 cells, 7 days
Protocol: The assay was carried out by incubating HIV infected U937 cells in the presence of various levels of peptide for 7 days, followed by assay for levels of the HIV protein p24 in the cells using an Enzyme Linked Immunoabsorbant Assay (ELISA) technique.

[4] = tested on: HSV2; test: HSV2 plaque formation in HEp-2 cells (Example 1); assay type: cell-based, Human herpes simplex virus type 2; conditions: for HSV2 plaque formation in HEp-2 cells, plaque count, wells 1-4: 1 hour; for HSV2 plaque formation in HEp-2 cells, Mean ± sd: untreated 152 ± 10.7
Protocol: FIG. 2 and table 2 show typical results for the test for anti-HSV2 activity. The assay was carried out as for the anti-HSV1 assay, except Hep-2 cells were used rather than Vero cells. ApoE141-149dp produced a 50% reduction in plaque number at a concentration of around 20 μM. Again note that the peptide was only present in the experimental system for 1 hour.

[5] = tested on: HSV1; test: HSV1 plaque formation in Vero cells (Example 1); assay type: cell-based, Human herpes simplex virus type 1; conditions: for HSV1 plaque formation in Vero cells, plaque count, wells 1-4: 1 hour; for HSV1 plaque formation in Vero cells, Mean ± sd: untreated 107 ± 14.2
Protocol: FIG. 1 and table 1 show typical results for the test for anti-HSV1 activity. The assay involved treating confluent Vero cells in 24-well plates with medium containing virus and varying amounts of peptide for one hour, followed by removal of this inoculum, and addition of viscous ‘overlay’ medium, containing 0.2% high viscosity carboxymethylcellulose. The overlay medium only allows infection of those cells immediately adjacent to an infected cell. After 2 days incubation and then fixation and staining, small patches of infected cells (or ‘plaques’) are visible, which are counted. Each of these corresponds to the infection of a single cell during the one hour inoculation. ApoE141-149dp produced a 40% reduction in plaque number at a concentration of around 20 μM. Note the peptide was only present in the experimental system for 1 hour.

[6] = peptide 10 μM in virus inoculum
[7] = peptide 20 μM in virus inoculum
[8] = peptide 30 μM in virus inoculum
[9] = peptide 40 μM in virus inoculum
[10] = at a concentration of around 20 μM, peptide present 1 hour
[11] = peptide 5 μM in virus inoculum, listed as ApoE141-149dp
[12] = peptide 10 μM in virus inoculum, listed as ApoE141-149dp
[13] = peptide 20 μM in virus inoculum, listed as ApoE141-149dp
[14] = peptide 30 μM in virus inoculum, listed as ApoE141-149dp
[15] = peptide 40 μM in virus inoculum, listed as ApoE141-149dp

| Molecule | IC50 [2] [µM] | activity against HIV, significance by ANOVA (in words) [3] | reduction in infectivity (HIV) [3] [%] | % Decrease in HIV p24 Production, Mean ± sd ([3]; peptide 10 μM) [%] | % Decrease in HIV p24 Production, Mean ± sd ([3]; peptide 20 μM) [%] | % Decrease in HIV p24 Production, Mean ± sd ([3]; peptide 30 μM) [%] | % Decrease in HIV p24 Production, Mean ± sd ([3]; peptide 40 μM) [%] | % Decrease in HIV p24 Production, Mean ± sd ([3]; peptide 50 μM) [%] | HSV2 plaque formation in HEp-2 cells, Mean ± sd ([4]; peptide 5 μM) | HSV2 plaque formation in HEp-2 cells, Mean ± sd ([4]; peptide 10 μM) | HSV2 plaque formation in HEp-2 cells, Mean ± sd ([4]; peptide 20 μM) | HSV2 plaque formation in HEp-2 cells, Mean ± sd ([4]; peptide 30 μM) | HSV2 plaque formation in HEp-2 cells, Mean ± sd ([4]; peptide 40 μM) | HSV1 plaque formation in Vero cells, Mean ± sd ([5]; peptide 5 μM) | HSV1 plaque formation in Vero cells, Mean ± sd ([5]; peptide 10 μM) | HSV1 plaque formation in Vero cells, Mean ± sd ([5]; peptide 20 μM) | HSV1 plaque formation in Vero cells, Mean ± sd ([5]; peptide 30 μM) | HSV1 plaque formation in Vero cells, Mean ± sd ([5]; peptide 40 μM) | other results |
| --- | --- | --- | --- | --- | --- | --- | --- | --- | --- | --- | --- | --- | --- | --- | --- | --- | --- | --- | --- |
| CC(=O)N[C@@H](Cc1c[nH]c2ccccc12)C(=O)N[C@@H](CCCNC(=N)N)C(=O)N[C@@H](CCCCN)C(=O)N[C@@H](Cc1c[nH]c2ccccc12)C(=O)N[C@@H](CCCNC(=N)N)C(=O)N[C@@H](CCCCN)C(=O)N[C@@H](CCCNC(=N)N)C(=O)N[C@@H](CC(C)C)C(=O)N[C@@H](CC(C)C)C(=O)N[C@@H](CC(C)C)C(=O)N[C@@H](CCCNC(=N)N)C(=O)N[C@@H](CCCCN)C(=O)N[C@@H](CC(C)C)C(=O)N[C@@H](CCCNC(=N)N)C(=O)N[C@@H](CCCCN)C(=O)N[C@@H](CCCNC(=N)N)C(=O)N[C@@H](CC(C)C)C(=O)N[C@@H](CC(C)C)C(N)=O [MU 114] (Ac-WRKWRKRLLLRKLRKRLL-NH2) | 16 |  |  |  |  |  |  |  |  |  |  |  |  |  |  |  |  |  | IC50 [1]: 9 µM |
| ApoE263-286: apoE263-286 peptide tested alongside apoE141-149dp in Example 1 (SWFEPLVEDMQRQWAGLVEKVQAA; UniProt P02649 281-304, looked up, fragment) [reference compound] |  | did not reach significance | 20 | 23.21 ± 12.79 | 22.77 ± 13.07 | 35.85 ± 7.21 | 38.87 ± 12.70 | 40.16 ± 6.25 | 152 ± 12.0 | 141 ± 16.1 | 146 ± 27.3 | 124 ± 24.2 | 131 ± 24.2 | 120 ± 5.5 | 114 ± 11.1 | 127 ± 17.0 | 121 ± 11.2 | 126 ± 11.2 | % Decrease in HIV p24 Production, Exp. 1-3 ([3]; peptide 30 μM): 37.94% and 27.83% and 41.78%; % Decrease in HIV p24 Production, Exp. 1-3 ([3]; peptide 50 μM): 33.36% and 41.45% and 45.66%; HSV2 plaque formation in HEp-2 cells, plaque count, wells 1-4 ([4]; peptide 5 μM in virus inoculum): 135 and 160 and 161 and 152; HSV2 plaque formation in HEp-2 cells, plaque count, wells 1-4 [4, 6]: 157 and 121 and 151 and 134; HSV2 plaque formation in HEp-2 cells, plaque count, wells 1-4 [4, 7]: 118 and 150 and 182 and 134; HSV2 plaque formation in HEp-2 cells, plaque count, wells 1-4 [4, 8]: 118 and 117 and 103 and 159; HSV2 plaque formation in HEp-2 cells, plaque count, wells 1-4 [4, 9]: 132 and 144 and 125 and 124; HSV1 plaque formation in Vero cells, plaque count, wells 1-4 ([5]; peptide 5 μM in virus inoculum): 113 and 119 and 122 and 126; HSV1 plaque formation in Vero cells, plaque count, wells 1-4 [5, 6]: 116 and 124 and 102; HSV1 plaque formation in Vero cells, plaque count, wells 1-4 [5, 7]: 148 and 112 and 133 and 114; HSV1 plaque formation in Vero cells, plaque count, wells 1-4 [5, 8]: 134 and 109 and 114 and 125; HSV1 plaque formation in Vero cells, plaque count, wells 1-4 [5, 9]: 120 and 113 and 125 and 144 |
| CC(C)C[C@H](NC(=O)[C@H](CC(C)C)NC(=O)[C@H](CCCNC(=N)N)NC(=O)[C@H](CCCCN)NC(=O)[C@H](CCCNC(=N)N)NC(=O)[C@H](CC(C)C)NC(=O)[C@H](CCCCN)NC(=O)[C@H](CCCNC(=N)N)NC(=O)[C@H](CC(C)C)NC(=O)[C@H](CC(C)C)NC(=O)[C@H](CC(C)C)NC(=O)[C@H](CCCNC(=N)N)NC(=O)[C@H](CCCCN)NC(=O)[C@H](CCCNC(=N)N)NC(=O)[C@H](CC(C)C)NC(=O)[C@H](CCCCN)NC(=O)[C@H](CCCNC(=N)N)NC(=O)[C@@H](N)CC(C)C)C(=O)O [GIN 1] (H-LRKLRKRLLLRKLRKRLL-OH) | 16.5 | significantly active | 95 | 83.94 ± 11.84 | 95.02 ± 1.89 | 90.78 ± 4.49 | 95.87 ± 0.81 | 94.79 ± 1.34 | 141 ± 13.3 | 125 ± 8.7 | 77 ± 5.2 | 74 ± 2.9 | 57 ± 9.1 | 110 ± 13.2 | 81 ± 7.9 | 65 ± 2.6 | 66 ± 9.0 | 63 ± 6.6 | % Decrease in HIV p24 Production, Exp. 1-3 ([3]; peptide 10 μM, listed as ApoE141-149dp): 91.66% and 70.31% and 89.85%; % Decrease in HIV p24 Production, Exp. 1-3 ([3]; peptide 20 μM, listed as ApoE141-149dp): 96.87% and 95.08% and 93.10%; % Decrease in HIV p24 Production, Exp. 1-3 ([3]; peptide 30 μM, listed as ApoE141-149dp): 95.94% and 88.63% and 87.77%; % Decrease in HIV p24 Production, Exp. 1-3 ([3]; peptide 40 μM, listed as ApoE141-149dp): 96.80% and 95.47% and 95.33%; % Decrease in HIV p24 Production, Exp. 1-3 ([3]; peptide 50 μM, listed as ApoE141-149dp): 95.73% and 93.25% and 95.38%; reduction in plaque number (HSV2) [4, 10]: 50%; HSV2 plaque formation in HEp-2 cells, plaque count, wells 1-4 [4, 11]: 160 and 134 and 140 and 130; HSV2 plaque formation in HEp-2 cells, plaque count, wells 1-4 [4, 12]: 125 and 113 and 131 and 132; HSV2 plaque formation in HEp-2 cells, plaque count, wells 1-4 [4, 13]: 82 and 72 and 73 and 81; HSV2 plaque formation in HEp-2 cells, plaque count, wells 1-4 [4, 14]: 76 and 77 and 71 and 72; HSV2 plaque formation in HEp-2 cells, plaque count, wells 1-4 [4, 15]: 51 and 59 and 69 and 49; efficacy for reducing HSV1 infectivity (in words) ([2]; Examples 2 and 3): good efficacy; reduction in plaque number (HSV1) [5, 10]: 40%; HSV1 plaque formation in Vero cells, plaque count, wells 1-4 [5, 11]: 129 and 106 and 103 and 100; HSV1 plaque formation in Vero cells, plaque count, wells 1-4 [5, 12]: 73 and 87 and 76 and 89; HSV1 plaque formation in Vero cells, plaque count, wells 1-4 [5, 13]: 68 and 67 and 63; HSV1 plaque formation in Vero cells, plaque count, wells 1-4 [5, 14]: 72 and 71 and 56; HSV1 plaque formation in Vero cells, plaque count, wells 1-4 [5, 15]: 64 and 65 and 53 and 68 |
